From publication PMC10672575, “The Polyketides with Antimicrobial Activities from a Mangrove Endophytic Fungus Trichoderma lentiforme ML-P8-2” (Marine Drugs, 2023)
In brackets after ≈: the same amount, converted by molar mass.

What was measured:
Candida albicans = assay: Antifungal MIC, serial dilution in 96-well plates
Description: (§1) All measurements were conducted in triplicate. Ampicillin and ketoconazole were applied as positive controls for antibacterial and antifungal assays, respectively, and DMSO was utilized as a blank control.

Penicillium italicum = assay: Antifungal MIC, serial dilution in 96-well plates
Pseudomonas aeruginosa = assay: Antibacterial MIC, serial dilution in 96-well plates
Description: as §1

[1] = test system: methicillin-resistant Staphylococcus aureus (MRSA); assay: as above
Description: as §1

Bacillus subtilis = assay: as above
Description: as §1

Salmonella typhimurium = assay: as above; details: Salmonella enterica
Description: as §1

Staphylococcus aureus = assay: as above
Description: as §1

AChE = AChE (Homo sapiens, UniProt P22303); assay: biochemical; details: average of two independent experiments; read-out: IC50 for AChE inhibitory activities
Sequence of AChE (P22303 32-614): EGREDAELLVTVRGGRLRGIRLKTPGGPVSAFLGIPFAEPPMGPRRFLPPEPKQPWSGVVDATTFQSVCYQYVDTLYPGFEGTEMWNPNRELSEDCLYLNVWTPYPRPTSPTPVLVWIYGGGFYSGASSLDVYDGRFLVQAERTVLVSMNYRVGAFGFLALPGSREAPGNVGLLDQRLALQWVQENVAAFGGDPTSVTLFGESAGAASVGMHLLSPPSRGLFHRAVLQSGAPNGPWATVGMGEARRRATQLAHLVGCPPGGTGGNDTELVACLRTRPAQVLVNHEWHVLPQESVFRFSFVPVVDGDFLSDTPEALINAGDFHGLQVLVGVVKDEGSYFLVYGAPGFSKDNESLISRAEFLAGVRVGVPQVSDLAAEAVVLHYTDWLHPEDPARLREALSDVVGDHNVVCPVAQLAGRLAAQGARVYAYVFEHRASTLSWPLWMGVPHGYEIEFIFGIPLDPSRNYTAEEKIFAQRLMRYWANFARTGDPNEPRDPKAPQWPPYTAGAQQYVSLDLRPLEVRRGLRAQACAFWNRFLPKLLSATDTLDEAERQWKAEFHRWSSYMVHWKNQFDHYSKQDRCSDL
Description: Donepezil hydrochloride was taken as a positive control. All measurements were conducted in triplicate from two independent experiments. The reported IC50 was the average value of two independent experiments.

Cytotoxicity, MTT assay = format: cell-based; details: human, A549 lung cancer cells
Description: The cytotoxicities of compounds 1–10 and eujavanicol A on cells were assessed using MTT assay as described previously. Six cell lines were used, MDA-MB-435 (breast cancer cells), MDA-MB-231 (breast cancer cells), HCT116 (colon cancer cells), A549 (lung cancer cells), SNB19 (glioma cells), and PC3 (prostate cancer cells), which were acquired from Fu Erbo Biotechnology Co., Ltd. (Guangzhou, China).

SMILES | MIC (Candida albicans) | MIC (Penicillium italicum) | MIC (Pseudomonas aeruginosa) | MIC [1] | MIC (Bacillus subtilis) | MIC (Salmonella typhimurium) | MIC (Staphylococcus aureus) | IC50 (AChE) | IC50 (Cytotoxicity, MTT assay)
CC(=O)N1CCN(c2ccc(OCC3COC(Cn4ccnc4)(c4ccc(Cl)cc4Cl)O3)cc2)CC1 (centres unmarked) [Ketoconazole, reference compound] | 0.13 µM (≈ 0.0691 µg/mL) | 1.56 µM (≈ 0.829 µg/mL) |  |  |  |  |  |  | 
CC[C@@H](C)[C@H]1C=C[C@H]2[C@H](O)[C@H](O)C[C@@H](C)[C@@H]2[C@@]1(C)C(=O)CCO [Eujavanicol A, eujavanicol A] | 25 µM (≈ 8.11 µg/mL) | 25 µM (≈ 8.11 µg/mL) | > 100 µM | > 100 µM | > 100 µM | > 100 µM | > 100 µM | 32.4 ± 0.7 µM | 
CC[C@@H](C)[C@H]1C=C[C@H]2[C@H](OC(=O)C/C(C)=C\C(=O)O)[C@H](O)C[C@@H](C)[C@@H]2[C@@]1(C)C(=O)CCO [Compound 10, tandyukisin C] | 25 µM (≈ 11.3 µg/mL) | 50 µM (≈ 22.5 µg/mL) | > 100 µM | > 100 µM | > 100 µM | > 100 µM | > 100 µM | 50.9 ± 0.5 µM | 
CC[C@@H](C)[C@H]1C=C[C@H]2[C@H](O)[C@H](OC(=O)/C=C(\C)CC(=O)O)C[C@@H](C)[C@@H]2[C@@]1(C)C(=O)CCO [Compound 7, trichoharzin] | 50 µM (≈ 22.5 µg/mL) | 12.5 µM (≈ 5.63 µg/mL) | > 100 µM | > 100 µM | > 100 µM | > 100 µM | > 100 µM | 38.3 ± 0.4 µM | 
COc1cc(O)c2c(=O)c(C3CC(O)C(=O)O3)c(C)oc2c1 (centres unmarked) [Compound 1, 5-hydroxy-3-((3’R, 5’S)-3’-hydroxy-2’-oxotetrahydrofuran-5’-yl)-7-methoxy-2-methyl-4H-chromen-4-one] | 50 µM (≈ 15.3 µg/mL) | > 100 µM | > 100 µM | > 100 µM | > 100 µM | > 100 µM | > 100 µM | 38.6 ± 0.2 µM | 47.2 ± 5.5 µM
CC[C@@H](C)[C@H]1C=C[C@H]2[C@H](O)[C@H](OC(=O)C/C(C)=C/C(=O)O)C[C@@H](C)[C@@H]2[C@@]1(C)C(=O)CCO [Compound 9, tandyukisin G] | 25 µM (≈ 11.3 µg/mL) | 6.25 µM (≈ 2.82 µg/mL) | 50 µM (≈ 22.5 µg/mL) | > 100 µM | > 100 µM | > 100 µM | 50 µM (≈ 22.5 µg/mL) | 43.6 ± 0.4 µM | 
COc1cc(O)c2c(=O)c(CO)c(C)oc2c1 [Compound 3, 5-hydroxy-3-(hydroxymethyl)-7-methoxy-2-methyl-4H-chromen-4-one] | 25 µM (≈ 5.91 µg/mL) | > 100 µM | > 100 µM | > 100 µM | > 100 µM | > 100 µM | > 100 µM | 20.6 ± 0.3 µM | 
COc1cc(OC)c2c(=O)c(CO)c(C)oc2c1 [Compound 2, 3-(hydroxymethyl)-5,7-dimethoxy-2-methyl-4H-chromen-4-one] | 100 µM (≈ 25 µg/mL) | > 100 µM | > 100 µM | > 100 µM | > 100 µM | > 100 µM | > 100 µM | 33.7 ± 0.4 µM | 
CC1(C)S[C@@H]2[C@H](NC(=O)[C@H](N)c3ccccc3)C(=O)N2[C@H]1C(=O)O [Ampicillin, reference compound] |  |  | 0.13 µM (≈ 0.0454 µg/mL) | 0.25 µM (≈ 0.0874 µg/mL) | 0.25 µM (≈ 0.0874 µg/mL) | 0.25 µM (≈ 0.0874 µg/mL) | 0.25 µM (≈ 0.0874 µg/mL) |  | 
CCC(C)C1C=CC2C(O)C(OC(=O)C=C(C)CC(=O)O)CC(C)C2C1(C)C(=O)CCO (centres unmarked) [Compound 6, Tandyukisin J] | 25 µM (≈ 11.3 µg/mL) | 6.25 µM (≈ 2.82 µg/mL) | > 100 µM | > 100 µM | > 100 µM | > 100 µM | > 100 µM | 40.2 ± 0.7 µM | 
CC[C@@H](C)[C@H]1C=C[C@H]2[C@H](O)[C@H](OC(=O)C/C(C)=C\C(=O)O)C[C@@H](C)[C@@H]2[C@@]1(C)C(=O)CCO [Compound 8, tandyukisin D] | 50 µM (≈ 22.5 µg/mL) | 12.5 µM (≈ 5.63 µg/mL) | 50 µM (≈ 22.5 µg/mL) | > 100 µM | > 100 µM | 50 µM (≈ 22.5 µg/mL) | > 100 µM | 77.9 ± 1.7 µM | 
